Test results as given in patent publication US12514929B2, “Deformable nano-scale vehicles (DNVS) for trans-blood brain barrier, trans-mucosal, and transdermal drug delivery” (The Regents of the University of California, priority 2017, dated 2026).

Key:
Aβ42 = experiment: Effect of galangin and progalangin on Aβ42; set-up: species or system mice; conditions: mouse, in vivo
From the text: (§1) Progalangin reduced Aβ40 as well as Aβ42 levels (FIG. 19B).

[1] = Pharmacokinetics of galangin and progalangin in mice; type: in vivo; conditions: at 1 h
From the text: as §1

Aβ40 = experiment: Effect of galangin and progalangin on Aβ40; set-up: species or system mice; conditions: mouse, in vivo
From the text: as §1

- Brain Cmax [1]: approximately 50 ng/g
SMILES: O=c1c(O)c(-c2ccccc2)oc2cc(O)cc(O)c12 [Galangin, galangin]
- Aβ42 levels (Aβ42): no effect
- Aβ40 levels (Aβ40): reduce Aβ40 levels
